Laboratory results published in US11926613B2, “Kinase inhibitors for the treatment of central and peripheral nervous system disorders” (UNIVERSITY OF MIAMI, priority 2017, dated 2024).
Read-outs that look alike come from different tables or passages of the source.

How the values were obtained:
Primary Neurons = assay: HCS neurite outgrowth assay (High Content Screening with Primary Neurons); type: cell-based
[1] = system: neurons from hippocampi of E18 rat embryos; assay: Neurite growth length (% NTL) in cultured E18 rat hippocampal neurons, 9-point dose response, 48 hours; type: cell-based; conditions: for activity at 0.078 µM / activity at 0.156 µM / activity at 0.312 µM / activity at 0.625 µM / activity at 1.25 µM / activity at 2.5 µM / activity at 5 µM / activity at 10 µM / activity at 20 µM: Rattus norvegicus, Neuron, 48 h
Description: PRE-COATING CULTURE PLATES: On the day before the experiment, 96-well plates were pre-coated by plating 50 μl of Poly-D-lysine solution (PDL, 0.5 mg/mL) in each well. The next morning, the plates were washed four or five times with HBSS or PBS (150 μl/rinse), then left in buffer until cell plating
PREPARING THE CELLS: A timed pregnant rat carrying E18 embryos was euthanized using an IACUC approved method. In a laminar flow hood, the embryos were removed and placed in a petri dish containing Hank's Balanced Salt Solution (HBSS) with 20 mM HEPES, pH 7.3. Pup brains were dissected (see Meberg et al., 2003) and hippocampi were collected in 15 mL a conical tube containing Hibernate E with SM1 (2% v/v).
Dissociation media was prepared by combining 4.5 mL of Hibernate E (without SM1) with 0.5 mL of trypsin and 100 μl of DNAse solution. The medium over the hippocampi was carefully removed and replaced with dissociation solution, then incubated at 37° C. for 15-20 minutes, occasionally swirling the tube.
Using flame polished cotton plugged Pasteur pipettes, the dissociation media was removed, and then 5 mL of Hibernate E containing SM1 were added. The tube was swirled to thoroughly wash the tissue. The tissue was allowed to settle to the bottom of the tube, and the rinse solution was carefully removed. This step was repeated 5 times to dilute out trypsin and DNAse and remove any debris from lysed cells.
The final rinse media was removed from the tube and 1 pipette-full (1-2 mL) of Hibernate E with SM1 was added. Using the flame-polished Pasteur pipette (pre-wetted with rinse media), the tube was triturated until all cells had dissociated and no visible chunks of tissue remained. Fewer than ten triturations were typically performed. The volume was adjusted to 8-12 mL using Hibernate E containing SM1, the well was mixed and cell concentration was determined.
PLATING: The cells were diluted in culture media (NbActiv4 Cell-culture media) to a final concentration of 10,000 cells/mL. The HBSS was aspirated from PDL coated plates, and 150 μL of cell solution was loaded in the middle 48 wells at 1500 cells per well. Water was loaded in the outer wells to decrease evaporation from edge wells. Cells were allowed to adhere for 2 hours in tissue culture incubator prior to treatment.
TREATMENT: Compounds were diluted to various concentrations to provide 9 dose response concentrations of 20 μM, 10 μM, 5, μM, 2.5 μM, 1.25 μM, 0.625 μM, 0.3125 μM, 0.15625 μM, and 0.078125 μM. The plates were cultured for 48 hours, exposed to the compound at the various dose response concentrations.
FIXING THE CULTURES: The culture medium was removed from the plates and immediately replaced with 100-200 μl of warm (37° C.) 4% paraformaldehyde (PFA) solution in phosphate-buffered saline (PBS). The cells were fixed for 15-20 minutes at room temperature, and then rinsed with PBS (200 μl/well×3).
STAINING AND IMAGING: The PBS was removed and replaced with 100 μl of blocking/permeabilization buffer (PBS, 0.2% fish gelatin, 0.03% Triton X-100, 0.02% NaN3), then incubated overnight at 4° C. To this was added 100 μl of primary antibody solution (mouse anti-Beta III tubulin in blocking buffer) and incubate overnight at 4° C. The wells were rinsed with PBS (200 μl×3), which was then removed and replaced with 100 μl of secondary antibody solution (Goat anti-mouse Alexa 488, 10 μg/ml Hoechst 33342, 0.2% fish gelatin, 0.02% azide, in PBS). The plate was shaken gently on a rotating shaker for 2 hours, then rinsed with PBS (200 μl×5).
The plate was imaged using a Cellomics ArrayScan VTI in 2 different channels for nuclear staining (Hoechst) and cell body/neurite staining (βIII-tubulin). Typically, nine fields per well were imaged with a 5× objective and automatically traced by the Neuronal Profiling Bioapplication. To get reproducible results, at least 200-300 valid neurons were measured per condition. […]

Compound “2-(4-(((3R,4R)-4-(isonicotinamido)pyrrolidin-3- yl)carbamoyl)benzoyl)-4-methoxyphenyl acetate [Example A89]” has an EC50 (Primary Neurons) of 8.08 µM.

“2-(4-(((3R,4R)-4-(isonicotinamido)pyrrolidin-3- yl)carbamoyl)benzoyl)-4-methoxyphenyl benzoate [Example A87]” was tested, and the EC50 (Primary Neurons) was 13.1 µM.

With `O=C(N[C@@H]1CNC[C@H]1NC(=O)c1ccncc1)c1ccncc1` (stereo in doubt) [Example A10, N-[(3R,4R)-4-(pyridine-4-amido)pyrrolidin-3-yl]pyridine-4-carboxamide] the activity at 0.078 µM ([1]; 78 nM) was 91.7%, the activity at 0.156 µM ([1]; 156 nM) was 91.2% and the activity at 0.312 µM ([1]; 312 nM) was 87.5%. It also gave an activity at 0.625 µM ([1]; 625 nM) of 88.2%, an activity at 1.25 µM ([1]; 1.25 μM) of 83.7% and an activity at 2.5 µM ([1]; 2.5 μM) of 82.9%. For the same compound, the activity at 5 µM ([1]; 5 μM) was 85.9%, the activity at 10 µM ([1]; 10 μM) was 86% and the activity at 20 µM ([1]; 20 μM) was 92.6%. The EC50 (Primary Neurons; Primary neuron) was 0.93 µM.

Compound `O=C(N[C@@H]1CNC[C@H]1NC(=O)c1ccc(C(=O)c2ccccc2)cc1)c1ccncc1` (stereo in doubt) [Example A13, N-[(3R,4R)-4-(4-benzoylbenzamido)pyrrolidin-3-yl]pyridine-4-carboxamide] has an activity at 0.078 µM ([1]; 78 nM) of 99.5%, an activity at 0.156 µM ([1]; 156 nM) of 101% and an activity at 0.312 µM ([1]; 312 nM) of 97.7%. For the same compound, the activity at 0.625 µM ([1]; 625 nM) was 103%, the activity at 1.25 µM ([1]; 1.25 μM) was 106% and the activity at 2.5 µM ([1]; 2.5 μM) was 113%. The activity at 5 µM ([1]; 5 μM) was 120%, the activity at 10 µM ([1]; 10 μM) was 129% and the activity at 20 µM ([1]; 20 μM) was 147%. It also gave an EC50 (Primary Neurons; Primary neuron) of 4.96 µM.

`O=C(N[C@@H]1CNC[C@H]1NC(=O)c1ccncc1)c1ccccc1` (stereo in doubt) [Example A20, N-[(3R,4R)-4-benzamidopyrrolidin-3-yl]pyridine-4-carboxamide] was tested, and the activity at 0.078 µM ([1]; 78 nM) was 86.2%, the activity at 0.156 µM ([1]; 156 nM) was 81.5% and the activity at 0.312 µM ([1]; 312 nM) was 77.7%. It also gave an activity at 0.625 µM ([1]; 625 nM) of 86.1%, an activity at 1.25 µM ([1]; 1.25 μM) of 88.4% and an activity at 2.5 µM ([1]; 2.5 μM) of 90.2%. The activity at 5 µM ([1]; 5 μM) was 90.7%, the activity at 10 µM ([1]; 10 μM) was 93.8% and the activity at 20 µM ([1]; 20 μM) was 103%. It also gave an EC50 (Primary Neurons; Primary neuron) of 9.49 µM.

`COc1ccc(O)c(C(=O)c2ccc(C(=O)NC3CNC[C@H]3NC(=O)c3ccncc3)cc2)c1F` (stereo in doubt) [Example A32, N-[(3R,4S)-4-[4-(2-fluoro-6-hydroxy-3-methoxybenzoyl)benzamido]pyrrolidin-3-yl]pyridine-4-carboxamide] was tested, and the “neurite growth length (% NTL)” value ([1]; 78 nM) was 98.72 % NTL, the “neurite growth length (% NTL)” value ([1]; 156 nM) was 86.89 % NTL and the “neurite growth length (% NTL)” value ([1]; 312 nM) was 88.20 % NTL. The “neurite growth length (% NTL)” value ([1]; 625 nM) was 84.61 % NTL, the “neurite growth length (% NTL)” value ([1]; 1.25 μM) was 81.36 % NTL and the “neurite growth length (% NTL)” value ([1]; 2.5 μM) was 90.59 % NTL. For the same compound, the “neurite growth length (% NTL)” value ([1]; 5 μM) was 88.24 % NTL, the “neurite growth length (% NTL)” value ([1]; 10 μM) was 82.90 % NTL and the “neurite growth length (% NTL)” value ([1]; 20 μM) was 86.59 % NTL. The EC50 (Primary Neurons) was > 20 µM.

In the case of `COc1ccc(O)c(C(=O)c2ccc(C(=O)N[C@H]3CNC[C@@H]3NC(=O)c3ccncc3)cc2)c1F` (stereo in doubt) [Example A34, N-[(3S,4S)-4-[4-(2-fluoro-6-hydroxy-3-methoxybenzoyl)benzamido]pyrrolidin-3-yl]pyridine-4-carboxamide], the “neurite growth length (% NTL)” value ([1]; 78 nM) is reported as 102.90 % NTL, the “neurite growth length (% NTL)” value ([1]; 156 nM) is reported as 102.77 % NTL and the “neurite growth length (% NTL)” value ([1]; 312 nM) is reported as 92.06 % NTL. For the same compound, the “neurite growth length (% NTL)” value ([1]; 625 nM) was 92.27 % NTL, the “neurite growth length (% NTL)” value ([1]; 1.25 μM) was 95.84 % NTL and the “neurite growth length (% NTL)” value ([1]; 2.5 μM) was 105.94 % NTL. The “neurite growth length (% NTL)” value ([1]; 5 μM) was 110.06 % NTL, the “neurite growth length (% NTL)” value ([1]; 10 μM) was 118.29 % NTL and the “neurite growth length (% NTL)” value ([1]; 20 μM) was 130.91 % NTL. For the same compound, the EC50 (Primary Neurons) was 13 µM.

Compound `COc1ccc(OC)c(C(=O)c2ccc(C(=O)Nc3ccncc3NC(=O)c3ccncc3)cc2)c1F` [Example A1, N-{4-[4-(2-fluoro-3,6-dimethoxybenzoyl)benzamido]pyridin-3-yl}pyridine-4-carboxamide] has an activity at 0.078 µM ([1]; 78 nM) of 89.9%, an activity at 0.156 µM ([1]; 156 nM) of 89% and an activity at 0.312 µM ([1]; 312 nM) of 89.6%. It also gave an activity at 0.625 µM ([1]; 625 nM) of 91%, an activity at 1.25 µM ([1]; 1.25 μM) of 93.5% and an activity at 2.5 µM ([1]; 2.5 μM) of 85.8%. It also gave an activity at 5 µM ([1]; 5 μM) of 92.9%, an activity at 10 µM ([1]; 10 μM) of 87% and an activity at 20 µM ([1]; 20 μM) of 84.6%. It also gave an EC50 (Primary Neurons; Primary neuron) of 9.34 µM.

Compound `COc1ccc(O)c(C(=O)c2ccc(C(=O)Nc3ccncc3NC(=O)c3ccncc3)cc2)c1F` [Example A2, N-{4-[4-(2-fluoro-6-hydroxy-3-methoxybenzoyl)benzamido]pyridin-3-yl}pyridine-4-carboxamide] has an activity at 0.078 µM ([1]; 78 nM) of 93.8%, an activity at 0.156 µM ([1]; 156 nM) of 96.2% and an activity at 0.312 µM ([1]; 312 nM) of 84.6%. The activity at 0.625 µM ([1]; 625 nM) was 93%, the activity at 1.25 µM ([1]; 1.25 μM) was 88.9% and the activity at 2.5 µM ([1]; 2.5 μM) was 91.1%. It also gave an activity at 5 µM ([1]; 5 μM) of 94.1%, an activity at 10 µM ([1]; 10 μM) of 93.4% and an activity at 20 µM ([1]; 20 μM) of 100%. It also gave an EC50 (Primary Neurons; Primary neuron) of 1.81 µM.

Work on `CCOc1ccc(O)c(C(=O)c2ccc(C(=O)N[C@@H]3CNC[C@H]3NC(=O)c3ccncc3)cc2)c1` [Example A90, N-((3R,4R)-4-(4-(5-ethoxy-2-hydroxybenzoyl)benzamido)pyrrolidin-3-yl)isonicotinamide] yielded an EC50 (Primary Neurons; Primary neuron) of 1.79 µM.

For `O=C(N[C@@H]1CNC[C@H]1NC(=O)c1ccc(C(=O)c2cc(F)ccc2O)cc1)c1ccncc1` [Example A91, N-((3R,4R)-4-(4-(5-fluoro-2-hydroxybenzoyl)benzamido)pyrrolidin-3-yl)isonicotinamide], the EC50 (Primary Neurons; Primary neuron) was 3.41 µM.

For `O=C(N[C@@H]1CNC[C@H]1NC(=O)c1ccc(C(=O)c2cc(-c3ccccc3)ccc2O)cc1)c1ccncc1` [Example A93, N-((3R,4R)-4-(4-(4-hydroxy-[1,1′-biphenyl]-3-carbonyl)benzamido)pyrrolidin-3-yl)isonicotinamide], the EC50 (Primary Neurons; Primary neuron) was 13.3 µM.

`COc1ccc(O)c(C(=O)c2ccc(C(=O)N[C@@H]3CCCNC[C@H]3NC(=O)c3ccncc3)cc2)c1F` [Example A94, N-((3R,4R)-4-(4-(2-fluoro-6-hydroxy-3-methoxybenzoyl)benzamido)azepan-3-yl)isonicotinamide] gave an EC50 (Primary Neurons; Primary neuron) of 0.813 µM.

`CCc1ccc(O)c(C(=O)c2ccc(C(=O)N[C@@H]3CNC[C@H]3NC(=O)c3ccncc3)cc2)c1` [Example A95, N-((3R,4R)-4-(4-(5-ethyl-2-hydroxybenzoyl)benzamido)pyrrolidin-3-yl)isonicotinamide] gave an EC50 (Primary Neurons; Primary neuron) of 9.77 µM.

Work on `O=C(N[C@@H]1CNC[C@H]1NC(=O)c1ccc(C(=O)c2cc(OC(F)(F)F)ccc2O)cc1)c1ccncc1` [Example A96, N-((3R,4R)-4-(4-(2-hydroxy-5-(trifluoromethoxy)benzoyl)benzamido)pyrrolidin-3-yl)isonicotinamide] yielded an EC50 (Primary Neurons; Primary neuron) of 1.45 µM.

With `O=C(N[C@@H]1CNC[C@H]1NC(=O)c1ccc(C(=O)c2cc(OCc3ccccc3)ccc2O)cc1)c1ccncc1` [Example A97, N-((3R,4R)-4-(4-(5-(benzyloxy)-2-hydroxybenzoyl)benzamido)pyrrolidin-3-yl)isonicotinamide] the EC50 (Primary Neurons; Primary neuron) was 11.3 µM.

Compound `CC(C)(C)Oc1ccc(O)c(C(=O)c2ccc(C(=O)N[C@@H]3CNC[C@H]3NC(=O)c3ccncc3)cc2)c1` [Example A98, N-((3R,4R)-4-(4-(5-(tert-butoxy)-2-hydroxybenzoyl)benzamido)pyrrolidin-3-yl)isonicotinamide] has an EC50 (Primary Neurons; Primary neuron) of 9.97 µM.

In the case of `O=C(N[C@@H]1CNC[C@H]1NC(=O)c1ccc(C(=O)c2cc(C(F)(F)F)ccc2O)cc1)c1ccncc1` [Example A99, N-((3R,4R)-4-(4-(2-hydroxy-5-(trifluoromethyl)benzoyl)benzamido)pyrrolidin-3-yl)isonicotinamide], the EC50 (Primary Neurons; Primary neuron) is reported as 2.36 µM.
